The source made the active and inactive calls. No cut-off for these calls is given here.
Tests used:
[1] = molecular target: C-X-C chemokine receptor type 4 (Homo sapiens) (UniProt P61073); assay: Binding affinity to CXCR4 (unknown origin) at 10 uM by radioligand binding assay
[2] = molecular target: C-X-C chemokine receptor type 3 (Rattus norvegicus, UniProt Q9JII9); assay: Antagonist activity at rat CXCR3 expressed in CHO-K1 cells assessed as reduction in CXCL10 induced calcium flux by FLIPR method; type: cell-based
[3] = In vivo inhibition of hERG in po dosed dog assessed as increase in QTc interval; type: toxicity, organism-based, Canis lupus familiaris
[4] = molecular target: ATP-dependent translocase ABCB1 (Homo sapiens, UniProt P08183); assay: Inhibition of human P-gp in dog MDCKII-MDR1 cells; type: ADME, cell-based
[5] = molecular target: C-C chemokine receptor type 5 (Homo sapiens) (UniProt P51681); assay: Binding affinity to CCR5 (unknown origin) at 10 uM by radioligand binding assay
[6] = molecular target: Solute carrier organic anion transporter family member 1B1 (Homo sapiens, UniProt Q9Y6L6); assay: Inhibition of human OATP1B1; type: ADME
[7] = Metabolic stability in human hepatocyte assessed as M4 metabolite formation at 1 uM and measured upto 15 mins in presence of NADPH regenerating system by LC-MS/MS analysis; type: ADME, cell-based; details: hepatocytes, 0.25 h
[8] = Half life in Wistar rat at 3 mg/kg,iv or 3mg/kg, po; type: ADME, organism-based; details: in vivo
[9] = Metabolic stability in dog hepatocyte assessed as M1 metabolite formation at 1 uM and measured upto 15 mins in presence of NADPH regenerating system by LC-MS/MS analysis; type: ADME, cell-based, Canis lupus familiaris; details: hepatocytes, 0.25 h
[10] = molecular target: C-X-C chemokine receptor type 5 (Homo sapiens) (UniProt P32302); assay: Binding affinity to CXCR5 (unknown origin) at 10 uM by radioligand binding assay
[11] = Volume of distribution at steady state in Wistar rat at 3 mg/kg,iv or 3 mg/kg, po; type: ADME, organism-based; details: in vivo, read-out: Vdss
[12] = molecular target: T1, C-X-C chemokine receptor type 3 (Homo sapiens, UniProt P49682); assay: Binding affinity to human CXCR3 expressed in CHO-K1 cell membrane assessed as dissociation constant using tritium-labeled ligand by […] assay; type: cell membranes
T1 sequence (P49682 whole entry): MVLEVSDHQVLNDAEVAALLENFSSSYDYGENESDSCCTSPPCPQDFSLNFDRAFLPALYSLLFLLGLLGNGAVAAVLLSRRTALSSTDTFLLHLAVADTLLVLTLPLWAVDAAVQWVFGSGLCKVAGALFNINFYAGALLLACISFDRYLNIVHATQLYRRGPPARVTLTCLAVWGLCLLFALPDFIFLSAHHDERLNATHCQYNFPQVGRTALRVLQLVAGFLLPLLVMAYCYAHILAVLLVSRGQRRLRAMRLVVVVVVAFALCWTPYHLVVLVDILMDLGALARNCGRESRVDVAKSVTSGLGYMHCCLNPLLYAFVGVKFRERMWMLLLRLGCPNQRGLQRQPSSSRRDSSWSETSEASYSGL

[13] = Cmin in LPS-induced DBA/1 mouse plasma at 0.02 microg/g, po bid preincubated for 3 days followed by LPS stimulation for 30 mins and measured after 72 hrs by flow cytometry; type: ADME, organism-based; details: dose 0.02 µg/g, time 3 day, read-out: Cmin
[14] = Cmax in LPS-induced DBA/1 mouse plasma at 0.006 microg/g, po bid preincubated for 3 days followed by LPS stimulation for 30 mins and measured after 72 hrs by flow cytometry; type: ADME, organism-based; parameters: dose 0.006 µg/g, time 6 day, route po; details: 0.006 µg/g
[15] = Protein binding in dog plasma assessed as fraction unbound at 0.1 to 300 ug/ml using 14C-labeled ligand by rapid equilibrium dialysis; type: ADME, cell-free, Canis lupus familiaris; details: at 0.1 to 300 µg/mL, dose 0.1-300 µg/ml
[16] = In vivo inhibition of hERG in iv dosed dog assessed as increase in QTc interval; type: toxicity, organism-based, Canis lupus familiaris
[17] = Oral bioavailability in Beagle dog at 2.5 mg/kg; type: ADME, organism-based, Canis lupus familiaris; details: in vivo
[18] = Cmax in Beagle dog at 2.5 mg/kg,iv or 2.5 mg/kg, po; type: ADME, organism-based, Canis lupus familiaris; parameters: dose 2.5 mg/kg, route iv; details: in vivo
[19] = molecular target: T2, C-X-C chemokine receptor type 3 (Mus musculus) (UniProt O88410); assay: In vivo antagonist activity at CXCR3 in LPS-induced DBA/1 mouse model assessed as reduction in mouse CXCL10-mediated chemotaxis in CD8+ T cells at 0.006 microg/g, po bid preincubated for 3 days followed by LPS stimulation for 30 mins and measured after 3 days by flow cytometry; type: functional, organism-based; parameters: scale not given: the % may be the effect or the level left; details: T-cell, dose 0.006 µg/g, time 6.0 day
T2 sequence (whole entry): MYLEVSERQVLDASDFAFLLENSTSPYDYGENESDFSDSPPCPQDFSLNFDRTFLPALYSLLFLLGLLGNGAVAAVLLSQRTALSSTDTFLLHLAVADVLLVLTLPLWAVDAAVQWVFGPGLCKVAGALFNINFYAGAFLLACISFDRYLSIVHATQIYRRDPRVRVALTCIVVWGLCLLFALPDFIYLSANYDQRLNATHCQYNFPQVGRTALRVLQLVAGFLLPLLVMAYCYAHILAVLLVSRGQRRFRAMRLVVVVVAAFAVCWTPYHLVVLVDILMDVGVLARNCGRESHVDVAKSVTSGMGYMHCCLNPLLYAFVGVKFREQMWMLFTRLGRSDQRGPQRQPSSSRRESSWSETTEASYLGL

[20] = molecular target: Solute carrier organic anion transporter family member 1B3 (Homo sapiens, UniProt Q9NPD5); assay: Inhibition of human OATP1B3; type: ADME
[21] = molecular target: Cytochrome P450 2C9 (Homo sapiens, UniProt P11712); assay: Time dependent inhibition of CYP2C9 (unknown origin); type: ADME
[22] = Induction of CYP3A4 mRNA upregulation in human hepatocytes upto 10 uM; type: ADME, cell-based, Hepatocyte
[23] = molecular target: fMet-Leu-Phe receptor (Homo sapiens) (UniProt P21462); assay: Binding affinity to FPR1 (unknown origin) at 10 uM by radioligand binding assay
[24] = molecular target: C-X-C chemokine receptor type 6 (Homo sapiens) (UniProt O00574); assay: Binding affinity to CXCR6 (unknown origin) at 10 uM by radioligand binding assay
[25] = molecular target: T3, C-X-C chemokine receptor type 3 (Mus musculus, UniProt O88410); assay: Antagonist activity at CXCR3 in DBA/1 mouse whole blood assessed as receptor internalization incubated for 30 mins in presence of CXCL10 by flow cytometric analysis; type: tissue-based
T3 sequence (O88410 whole entry): T2 sequence (whole entry)

[26] = Clearance in Cynomolgus monkey at 1.0 mg/kg,iv or 1.25 mg/kg, po; type: ADME, organism-based, Macaca fascicularis; details: in vivo
[27] = molecular target: CYP3A4 (Homo sapiens, UniProt P08684); assay: […] recombinant human CYP3A4 mediated drug metabolism in human liver microsomes assessed as intrinsic clearance at 1 uM incubated for 45 mins in presence of NADPH regenerating system by LC-MS/MS analysis; type: ADME, Microsome; details: read-out: CLH
[28] = molecular target: T1, C-X-C chemokine receptor type 3; assay: Antagonist activity at human CXCR3 expressed in CHO-K1 cells assessed as reduction in CXCL10 induced calcium flux by FLIPR method; type: cell-based

Sequence of Solute carrier organic anion transporter family member 1B3 (Q9NPD5 whole entry): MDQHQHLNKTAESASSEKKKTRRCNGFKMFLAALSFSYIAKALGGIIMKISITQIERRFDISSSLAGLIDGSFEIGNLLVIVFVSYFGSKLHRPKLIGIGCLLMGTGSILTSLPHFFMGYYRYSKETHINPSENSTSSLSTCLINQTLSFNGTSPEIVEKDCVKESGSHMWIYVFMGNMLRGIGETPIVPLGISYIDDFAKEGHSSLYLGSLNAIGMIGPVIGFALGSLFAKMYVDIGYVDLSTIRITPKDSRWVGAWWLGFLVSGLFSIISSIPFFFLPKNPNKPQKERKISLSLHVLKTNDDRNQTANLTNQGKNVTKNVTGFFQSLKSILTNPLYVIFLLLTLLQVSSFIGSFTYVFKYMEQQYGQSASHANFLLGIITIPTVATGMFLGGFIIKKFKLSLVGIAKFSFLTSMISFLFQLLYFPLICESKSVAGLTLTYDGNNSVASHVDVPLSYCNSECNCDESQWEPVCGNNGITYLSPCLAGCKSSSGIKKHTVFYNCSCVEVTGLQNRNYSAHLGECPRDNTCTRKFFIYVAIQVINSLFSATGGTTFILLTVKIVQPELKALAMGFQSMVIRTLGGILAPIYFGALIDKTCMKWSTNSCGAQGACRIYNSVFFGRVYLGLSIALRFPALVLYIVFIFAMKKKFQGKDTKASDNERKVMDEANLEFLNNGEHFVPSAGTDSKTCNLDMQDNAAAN
Sequence of ATP-dependent translocase ABCB1 (P08183 whole entry): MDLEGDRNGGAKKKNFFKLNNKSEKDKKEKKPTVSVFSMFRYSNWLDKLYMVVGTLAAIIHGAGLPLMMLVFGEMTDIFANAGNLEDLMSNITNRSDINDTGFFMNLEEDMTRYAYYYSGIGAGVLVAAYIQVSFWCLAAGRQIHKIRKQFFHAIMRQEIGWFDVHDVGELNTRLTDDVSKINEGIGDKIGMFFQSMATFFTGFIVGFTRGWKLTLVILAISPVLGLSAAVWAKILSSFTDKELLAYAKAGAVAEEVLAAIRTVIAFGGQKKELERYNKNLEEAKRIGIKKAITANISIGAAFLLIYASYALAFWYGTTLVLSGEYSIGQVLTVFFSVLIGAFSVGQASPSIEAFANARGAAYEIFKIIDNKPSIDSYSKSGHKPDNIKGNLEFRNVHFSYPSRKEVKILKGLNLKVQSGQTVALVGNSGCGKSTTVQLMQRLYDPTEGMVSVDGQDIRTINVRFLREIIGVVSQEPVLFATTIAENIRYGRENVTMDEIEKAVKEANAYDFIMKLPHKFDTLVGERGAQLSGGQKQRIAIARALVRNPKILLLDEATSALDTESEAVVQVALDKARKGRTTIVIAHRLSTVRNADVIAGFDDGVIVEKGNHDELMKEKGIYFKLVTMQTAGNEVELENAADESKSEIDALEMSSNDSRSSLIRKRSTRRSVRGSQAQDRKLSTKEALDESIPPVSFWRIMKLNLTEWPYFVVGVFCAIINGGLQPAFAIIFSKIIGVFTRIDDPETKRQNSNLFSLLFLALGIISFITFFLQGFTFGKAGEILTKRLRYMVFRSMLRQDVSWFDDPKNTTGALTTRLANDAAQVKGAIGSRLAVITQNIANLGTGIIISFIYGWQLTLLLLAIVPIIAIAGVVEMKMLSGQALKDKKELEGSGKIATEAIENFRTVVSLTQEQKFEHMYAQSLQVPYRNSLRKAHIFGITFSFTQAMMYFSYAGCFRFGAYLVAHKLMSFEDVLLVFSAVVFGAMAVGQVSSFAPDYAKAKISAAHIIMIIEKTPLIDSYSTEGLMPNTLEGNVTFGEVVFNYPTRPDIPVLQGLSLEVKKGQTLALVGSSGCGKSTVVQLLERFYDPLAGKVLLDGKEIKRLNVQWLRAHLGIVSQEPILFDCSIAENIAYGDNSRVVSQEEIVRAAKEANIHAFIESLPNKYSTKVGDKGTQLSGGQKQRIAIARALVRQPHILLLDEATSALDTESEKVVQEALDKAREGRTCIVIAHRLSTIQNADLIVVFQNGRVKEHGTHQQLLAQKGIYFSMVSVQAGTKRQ
Sequence of C-X-C chemokine receptor type 6 (Homo sapiens) (O00574 whole entry, looked up): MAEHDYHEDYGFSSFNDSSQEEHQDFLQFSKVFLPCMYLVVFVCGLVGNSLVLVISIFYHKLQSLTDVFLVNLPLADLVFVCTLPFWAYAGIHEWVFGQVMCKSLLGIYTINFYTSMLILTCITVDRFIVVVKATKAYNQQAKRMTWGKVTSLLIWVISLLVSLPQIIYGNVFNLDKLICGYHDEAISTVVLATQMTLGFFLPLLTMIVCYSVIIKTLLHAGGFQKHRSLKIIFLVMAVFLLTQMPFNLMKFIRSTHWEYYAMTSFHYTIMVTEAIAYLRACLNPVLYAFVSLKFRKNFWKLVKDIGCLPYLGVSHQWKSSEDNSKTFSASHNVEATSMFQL
Sequence of Cytochrome P450 2C9 (P11712 whole entry): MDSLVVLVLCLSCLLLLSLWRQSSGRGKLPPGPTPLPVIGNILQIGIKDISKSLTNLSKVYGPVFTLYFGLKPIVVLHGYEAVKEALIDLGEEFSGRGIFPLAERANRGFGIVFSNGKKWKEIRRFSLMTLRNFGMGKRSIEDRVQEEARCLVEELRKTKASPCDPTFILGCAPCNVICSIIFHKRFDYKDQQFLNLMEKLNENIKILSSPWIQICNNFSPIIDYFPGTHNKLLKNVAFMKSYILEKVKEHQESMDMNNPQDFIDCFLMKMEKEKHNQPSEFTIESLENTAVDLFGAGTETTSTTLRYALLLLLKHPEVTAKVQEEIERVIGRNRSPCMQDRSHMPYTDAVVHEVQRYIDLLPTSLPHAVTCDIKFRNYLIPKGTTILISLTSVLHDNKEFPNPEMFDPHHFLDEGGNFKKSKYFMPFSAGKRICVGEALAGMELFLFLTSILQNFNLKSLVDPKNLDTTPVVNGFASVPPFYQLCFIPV
Sequence of C-X-C chemokine receptor type 3 (Rattus norvegicus, UniProt Q9JII9) (Q9JII9 whole entry): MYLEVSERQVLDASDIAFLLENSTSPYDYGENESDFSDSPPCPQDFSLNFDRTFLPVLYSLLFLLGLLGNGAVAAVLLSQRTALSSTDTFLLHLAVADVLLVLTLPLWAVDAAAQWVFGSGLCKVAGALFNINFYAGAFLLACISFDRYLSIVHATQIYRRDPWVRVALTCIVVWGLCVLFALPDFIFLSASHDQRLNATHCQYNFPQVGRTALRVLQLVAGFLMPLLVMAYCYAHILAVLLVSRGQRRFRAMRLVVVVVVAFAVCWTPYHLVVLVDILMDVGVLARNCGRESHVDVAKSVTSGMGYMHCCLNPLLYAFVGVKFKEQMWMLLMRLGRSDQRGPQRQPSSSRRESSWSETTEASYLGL
Sequence of CYP3A4 (P08684 whole entry): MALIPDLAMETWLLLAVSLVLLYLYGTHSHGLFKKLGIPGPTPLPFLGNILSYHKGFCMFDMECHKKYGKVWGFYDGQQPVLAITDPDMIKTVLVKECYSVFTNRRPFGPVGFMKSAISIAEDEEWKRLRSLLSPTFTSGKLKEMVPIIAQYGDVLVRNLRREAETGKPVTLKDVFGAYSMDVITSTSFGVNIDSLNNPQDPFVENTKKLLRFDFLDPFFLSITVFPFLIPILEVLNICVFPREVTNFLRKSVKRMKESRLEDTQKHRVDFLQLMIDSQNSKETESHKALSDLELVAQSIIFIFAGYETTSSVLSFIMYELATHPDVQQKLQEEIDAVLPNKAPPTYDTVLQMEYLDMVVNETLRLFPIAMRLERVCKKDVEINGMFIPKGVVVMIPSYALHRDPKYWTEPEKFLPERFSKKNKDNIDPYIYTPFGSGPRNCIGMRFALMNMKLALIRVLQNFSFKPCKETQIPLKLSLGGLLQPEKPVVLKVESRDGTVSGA
Sequence of C-X-C chemokine receptor type 4 (Homo sapiens) (P61073 whole entry): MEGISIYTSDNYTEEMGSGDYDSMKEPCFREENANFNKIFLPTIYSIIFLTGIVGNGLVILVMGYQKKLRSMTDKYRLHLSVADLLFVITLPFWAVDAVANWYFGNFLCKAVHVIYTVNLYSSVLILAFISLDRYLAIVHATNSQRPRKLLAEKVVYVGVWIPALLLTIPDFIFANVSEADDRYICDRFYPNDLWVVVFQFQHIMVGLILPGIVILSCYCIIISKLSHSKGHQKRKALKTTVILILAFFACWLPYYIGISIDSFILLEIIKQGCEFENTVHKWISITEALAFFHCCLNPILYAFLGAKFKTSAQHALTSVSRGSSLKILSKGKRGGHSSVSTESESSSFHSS
Sequence of fMet-Leu-Phe receptor (Homo sapiens) (P21462 whole entry): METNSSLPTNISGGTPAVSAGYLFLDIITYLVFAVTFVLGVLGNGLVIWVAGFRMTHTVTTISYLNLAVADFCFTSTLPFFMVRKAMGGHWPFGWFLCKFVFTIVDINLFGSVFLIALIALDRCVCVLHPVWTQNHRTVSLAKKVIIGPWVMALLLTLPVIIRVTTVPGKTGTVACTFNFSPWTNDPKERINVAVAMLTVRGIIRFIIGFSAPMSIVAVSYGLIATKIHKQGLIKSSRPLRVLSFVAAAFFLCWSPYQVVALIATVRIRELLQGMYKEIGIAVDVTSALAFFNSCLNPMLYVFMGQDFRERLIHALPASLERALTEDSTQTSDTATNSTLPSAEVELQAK
Sequence of C-X-C chemokine receptor type 5 (Homo sapiens) (P32302 whole entry): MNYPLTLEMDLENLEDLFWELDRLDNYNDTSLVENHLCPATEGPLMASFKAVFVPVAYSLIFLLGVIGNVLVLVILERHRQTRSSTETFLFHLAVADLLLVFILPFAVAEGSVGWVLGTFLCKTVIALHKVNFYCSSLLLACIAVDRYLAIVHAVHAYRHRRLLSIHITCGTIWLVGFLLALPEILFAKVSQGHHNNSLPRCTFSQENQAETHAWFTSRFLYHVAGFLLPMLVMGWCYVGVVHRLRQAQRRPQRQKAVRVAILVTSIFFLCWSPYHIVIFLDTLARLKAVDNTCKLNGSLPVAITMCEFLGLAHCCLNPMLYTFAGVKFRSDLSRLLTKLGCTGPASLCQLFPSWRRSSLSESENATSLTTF

SMILES: Cc1ncn(CC(=O)N2CCN(c3sc(C(F)(F)F)nc3-c3cnc(C(F)(F)F)nc3)C[C@H]2CCO)n1
- Activity [1]: inactive
- IC50 [2]: 2.2 nM
- inhibition (INH) [3]: Toxic
- inhibition (INH) [4]: Not Active
- Activity [5]: inactive
- inhibition (INH) [6]: Not Active
- Stability [7]: Unstable
- half-life [8]: 5.5 h
- Stability [9]: Unstable
- Activity [10]: inactive
- Vd [11]: 2.7 L/kg
- Kd [12]: 4.6 nM
- concentration at 72 h [13]: 99 ng/mL
- Cmax [14]: 42 ng/mL
- fraction unbound [15]: 0.48
- inhibition (INH) [16]: Toxic
- bioavailability [17]: 89%
- Cmax [18]: 910 ng/mL
- Activity [19]: 35%
- inhibition (INH) [20]: Not Active
- IC50 [21]: > 50000 nM
- Activity [22]: Not Active
- Activity [23]: inactive
- Activity [24]: inactive
- IC50 [25]: 161 nM
- clearance [26]: 5.3 mL/min/kg
- microsomal CLint at 1 µM [27]: < 0.04 µL/min/mg
- IC50 [28]: 3.2 nM

Reference: ChEMBL document CHEMBL5247653, “Discovery of Clinical Candidate ACT-777991, a Potent CXCR3 Antagonist for Antigen-Driven and Inflammatory Pathologies” (J Med Chem, 2023)
